This is an account of results in US20250051510A1, “CARBON-IODINE CONJUGATED POLYMER AND PREPARATION THEREOF, AND USE THEREOF FOR PREPARING LOCALIZATION MARKER” (Huazhong University of Science and Technology, priority 2021, published 2025).

Series [1] can be described thus: Local injection into rat leg muscles under CT guidance, CT marking over time. As to conditions: rat leg muscle, iodine content increased by 25 times. The class given is in vivo. On the procedure: In order to verify whether the super-strong CT imaging effect of PIDA is practically applicable, the PIDA dispersion and iohexol with the same iodine content were injected locally into leg muscles of a rat respectively under CT guidance in the present invention. For effective CT marking, the CT signal intensity thereof should be 2 times or more that of background tissues. A background CT signal of rat muscle tissues is about 50 HU, so the CT marking signal intensity exceeding 100 HU can be regarded as effective CT marking. […] To further verify the high efficiency and location stability of PIDA CT imaging, in the present invention, iohexol with the iodine content being increased by 25 times was injected into a corresponding leg muscle site of a rat.

Another series concerns rat erythrocytes. Nature of the series: Hemolysis test with rat erythrocytes. As to conditions: PIDA dispersions of different concentrations; Triton = 100% hemolysis control. The series is classed as cell-based. On the procedure:
When a material is applied in the biomedical field, in addition to the special imaging/treatment effect of the material, the biocompatibility of the material itself is the topic that people are most concerned about. At the cell level, PIDA dispersions of different concentrations were mixed with rat erythrocytes in the present invention. […] In addition, in the present invention, PIDA dispersions of different concentrations were respectively incubated together with 4Tl cells (mouse breast cancer cells), NIH 3T3 cells (mouse embryonic fibroblasts) and HEK 293T (human embryonic kidney cells) for 12 hours, and cell viability was verified by means of MTT verification.

Consider `CC(=O)N(CC(O)CO)c1c(I)c(C(=O)NCC(O)CO)c(I)c(C(=O)NCC(O)CO)c1I` (centres unmarked) [iohexol], for which, in series [1], the “time until CT enhancement completely disappeared” value was ≤ 6 h.

For the compound Triton, the hemolysis rate result in the series on rat erythrocytes is on record as “complete hemolysis”.
